Source: ChEMBL document CHEMBL2074244, “Loss of ATP-dependent transport activity in pseudoxanthoma elasticum-associated mutants of human ABCC6 (MRP6)” (J Biol Chem, 2002)

Columns and labels:
Assay type in all cases: functional, cell membranes, Membrane vesicle
Parameters in all cases: scale not given: the % may be the effect or the level left
MRP6 (ABCC6) [1] = biological target: T1, MRP6 (ABCC6) (Homo sapiens, UniProt O95255); test: TP_TRANSPORTER: inhibition of NEM-GS in the presence of Benzbromarone at a concentration of 30uM in membrane vesicles from MRP6-expressing Sf9 cells; conditions: probe NEM-GS, read-out: Activity
[2] = biological target: ATP-binding cassette sub-family C member 2 (Homo sapiens, UniProt Q92887); test: TP_TRANSPORTER: inhibition of NEM-GS by Benzbromarone at a concentration of 30uM in membrane vesicles from MRP2-expressing Sf9 cells; conditions: sf9, 30 µM
MRP6 (ABCC6) [3] = biological target: T1, MRP6 (ABCC6); test: TP_TRANSPORTER: inhibition of NEM-GS by Benzbromarone at a concentration of 30uM in membrane vesicles from MRP6-expressing Sf9 cells; conditions: probe NEM-GS, read-out: Activity
MRP6 (ABCC6) [4] = biological target: T1, MRP6 (ABCC6); test: TP_TRANSPORTER: inhibition of NEM-GS in the presence of Indomethacin at a concentration of 100uM in membrane vesicles from MRP6-expressing Sf9 cells; conditions: probe NEM-GS, read-out: Activity
MRP6 (ABCC6) [5] = biological target: T1, MRP6 (ABCC6); test: TP_TRANSPORTER: inhibition of NEM-GS by Indomethacin at a concentration of 100uM in membrane vesicles from MRP6-expressing Sf9 cells; conditions: probe NEM-GS, read-out: Activity
MRP6 (ABCC6) [6] = biological target: T1, MRP6 (ABCC6); test: TP_TRANSPORTER: inhibition of NEM-GS in the presence of Probenecid at a concentration of 1mM in membrane vesicles from MRP6-expressing Sf9 cells; conditions: probe NEM-GS, read-out: Activity
MRP2 (ABCC2) = MRP2 (ABCC2) (Homo sapiens, UniProt Q92887); test: TP_TRANSPORTER: inhibition of NEM-GS by Probenecid at a concentration of 1mM in membrane vesicles from MRP2-expressing Sf9 cells; conditions: probe NEM-GS, read-out: Activity
[7] = biological target: ATP-binding cassette sub-family C member 6 (Homo sapiens, UniProt O95255); test: TP_TRANSPORTER: inhibition of NEM-GS by Probenecid at a concentration of 1mM in membrane vesicles from MRP6-expressing Sf9 cells; conditions: sf9, 1000 µM
Chain of ATP-binding cassette sub-family C member 6 (O95255 whole entry): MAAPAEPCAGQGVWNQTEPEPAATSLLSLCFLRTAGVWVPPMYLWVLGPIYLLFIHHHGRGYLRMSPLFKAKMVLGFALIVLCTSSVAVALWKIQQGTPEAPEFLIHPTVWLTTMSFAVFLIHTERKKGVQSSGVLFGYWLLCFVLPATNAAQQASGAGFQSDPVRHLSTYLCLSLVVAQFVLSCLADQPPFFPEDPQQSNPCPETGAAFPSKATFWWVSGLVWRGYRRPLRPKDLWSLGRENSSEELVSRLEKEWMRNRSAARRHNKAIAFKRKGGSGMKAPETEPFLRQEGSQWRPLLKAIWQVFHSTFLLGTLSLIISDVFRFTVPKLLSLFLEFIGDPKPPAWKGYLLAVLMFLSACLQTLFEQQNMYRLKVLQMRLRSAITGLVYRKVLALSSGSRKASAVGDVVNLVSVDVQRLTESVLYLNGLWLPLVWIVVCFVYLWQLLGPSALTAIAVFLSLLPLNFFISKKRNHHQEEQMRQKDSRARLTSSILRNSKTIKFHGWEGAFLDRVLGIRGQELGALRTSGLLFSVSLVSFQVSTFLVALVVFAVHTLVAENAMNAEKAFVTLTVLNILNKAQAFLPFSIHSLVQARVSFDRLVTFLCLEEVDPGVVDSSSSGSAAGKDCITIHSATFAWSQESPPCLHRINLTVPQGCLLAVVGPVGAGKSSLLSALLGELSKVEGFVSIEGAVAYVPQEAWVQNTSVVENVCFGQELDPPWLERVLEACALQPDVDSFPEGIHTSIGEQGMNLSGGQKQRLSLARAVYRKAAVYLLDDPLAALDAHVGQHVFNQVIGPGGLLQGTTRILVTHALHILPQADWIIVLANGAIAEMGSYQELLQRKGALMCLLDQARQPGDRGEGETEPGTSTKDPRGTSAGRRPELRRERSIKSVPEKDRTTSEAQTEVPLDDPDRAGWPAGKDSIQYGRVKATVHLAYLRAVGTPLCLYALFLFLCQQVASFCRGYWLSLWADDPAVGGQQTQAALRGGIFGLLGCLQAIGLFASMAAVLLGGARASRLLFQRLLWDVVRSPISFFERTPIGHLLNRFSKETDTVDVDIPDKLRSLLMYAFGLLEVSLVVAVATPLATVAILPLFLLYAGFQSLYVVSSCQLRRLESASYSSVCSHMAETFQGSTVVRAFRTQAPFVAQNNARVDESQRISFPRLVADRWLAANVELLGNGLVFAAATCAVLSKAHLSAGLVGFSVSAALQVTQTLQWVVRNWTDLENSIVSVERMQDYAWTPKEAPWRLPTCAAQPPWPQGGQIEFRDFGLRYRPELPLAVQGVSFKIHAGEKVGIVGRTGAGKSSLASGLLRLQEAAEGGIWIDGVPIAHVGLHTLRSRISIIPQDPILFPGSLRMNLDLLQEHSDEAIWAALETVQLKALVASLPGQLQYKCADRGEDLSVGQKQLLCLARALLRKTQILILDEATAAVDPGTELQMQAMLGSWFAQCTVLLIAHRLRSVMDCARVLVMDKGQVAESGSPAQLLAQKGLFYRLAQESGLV

T1 sequence (O95255 whole entry): as above
Chain of ATP-binding cassette sub-family C member 2 (Q92887 whole entry): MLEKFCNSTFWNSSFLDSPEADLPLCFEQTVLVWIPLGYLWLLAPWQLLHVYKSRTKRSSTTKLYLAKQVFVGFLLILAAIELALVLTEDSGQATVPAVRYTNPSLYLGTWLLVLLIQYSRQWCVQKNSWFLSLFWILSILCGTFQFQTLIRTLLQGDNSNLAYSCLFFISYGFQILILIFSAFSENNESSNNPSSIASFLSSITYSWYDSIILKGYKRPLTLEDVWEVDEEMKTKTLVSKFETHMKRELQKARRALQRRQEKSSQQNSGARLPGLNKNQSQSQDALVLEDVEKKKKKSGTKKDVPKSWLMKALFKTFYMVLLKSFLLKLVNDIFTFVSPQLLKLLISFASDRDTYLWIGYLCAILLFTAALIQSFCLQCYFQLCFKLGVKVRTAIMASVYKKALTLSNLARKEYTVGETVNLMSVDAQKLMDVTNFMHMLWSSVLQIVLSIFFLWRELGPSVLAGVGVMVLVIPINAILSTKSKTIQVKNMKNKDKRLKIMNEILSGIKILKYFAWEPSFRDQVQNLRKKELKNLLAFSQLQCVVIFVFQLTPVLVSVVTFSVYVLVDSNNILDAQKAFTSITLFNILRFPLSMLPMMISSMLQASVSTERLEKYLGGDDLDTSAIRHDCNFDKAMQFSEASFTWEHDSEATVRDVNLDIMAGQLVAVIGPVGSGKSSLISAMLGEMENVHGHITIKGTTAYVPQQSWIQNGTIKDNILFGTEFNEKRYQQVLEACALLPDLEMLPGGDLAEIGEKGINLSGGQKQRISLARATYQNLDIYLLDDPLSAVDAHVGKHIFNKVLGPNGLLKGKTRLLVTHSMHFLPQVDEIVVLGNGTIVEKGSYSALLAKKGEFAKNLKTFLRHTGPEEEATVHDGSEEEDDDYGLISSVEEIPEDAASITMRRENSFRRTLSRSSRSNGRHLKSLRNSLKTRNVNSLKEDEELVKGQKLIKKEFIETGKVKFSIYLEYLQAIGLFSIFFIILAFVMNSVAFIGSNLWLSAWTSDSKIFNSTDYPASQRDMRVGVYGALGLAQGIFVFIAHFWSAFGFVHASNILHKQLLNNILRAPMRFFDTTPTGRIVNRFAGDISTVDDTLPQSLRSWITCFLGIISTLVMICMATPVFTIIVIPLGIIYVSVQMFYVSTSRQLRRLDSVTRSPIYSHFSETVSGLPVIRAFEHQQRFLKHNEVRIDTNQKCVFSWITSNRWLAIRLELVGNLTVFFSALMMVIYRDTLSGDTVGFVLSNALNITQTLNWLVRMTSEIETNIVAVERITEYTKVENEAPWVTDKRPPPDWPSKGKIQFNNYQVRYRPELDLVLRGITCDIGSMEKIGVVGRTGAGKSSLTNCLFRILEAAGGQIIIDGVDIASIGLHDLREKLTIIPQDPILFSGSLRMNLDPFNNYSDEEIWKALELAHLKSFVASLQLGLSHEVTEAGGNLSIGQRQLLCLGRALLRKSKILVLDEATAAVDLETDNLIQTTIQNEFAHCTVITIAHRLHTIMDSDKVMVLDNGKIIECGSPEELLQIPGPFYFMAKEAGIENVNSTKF
Chain of MRP2 (ABCC2) (Q92887 whole entry): as above

Structure (SMILES): CCc1oc2ccccc2c1C(=O)c1cc(Br)c(O)c(Br)c1 [BENZBROMARONE]
- activity at 30 µM (MRP6 (ABCC6) [1]): 0%
- Activity [2]: 0%
- activity at 30 µM (MRP6 (ABCC6) [3]): 0%

Structure (SMILES): COc1ccc2c(c1)c(CC(=O)O)c(C)n2C(=O)c1ccc(Cl)cc1 [INDOMETHACIN]
- activity at 100 µM (MRP6 (ABCC6) [4]): 80%
- activity at 100 µM (MRP6 (ABCC6) [5]): 20%

Structure (SMILES): CCCN(CCC)S(=O)(=O)c1ccc(C(=O)O)cc1 [PROBENECID]
- activity at 1000 µM (MRP6 (ABCC6) [6]): 10%
- activity at 1000 µM (MRP2 (ABCC2)): 20%
- Activity [7]: 70%
